In ChEMBL document CHEMBL1149669, “Sulfonamide derivatives as new potent and selective CB2 cannabinoid receptor agonists” (Bioorg Med Chem Lett, 2007):

Experiments:
[1] = molecular target: Cannabinoid receptor 1 (Homo sapiens, UniProt P21554); experiment: Displacement of [3H]CP-55940 from human CB1 receptor expressed in CHO cells; format: cell-based
[2] = molecular target: T1, Cannabinoid receptor 2 (Homo sapiens, UniProt P34972); experiment: Agonist activity at human CB2 receptor expressed in CHO cells by [35S]GTP-gamma-S binding assay relative to CP-55940; format: functional, cell-based
T1 sequence (P34972 whole entry): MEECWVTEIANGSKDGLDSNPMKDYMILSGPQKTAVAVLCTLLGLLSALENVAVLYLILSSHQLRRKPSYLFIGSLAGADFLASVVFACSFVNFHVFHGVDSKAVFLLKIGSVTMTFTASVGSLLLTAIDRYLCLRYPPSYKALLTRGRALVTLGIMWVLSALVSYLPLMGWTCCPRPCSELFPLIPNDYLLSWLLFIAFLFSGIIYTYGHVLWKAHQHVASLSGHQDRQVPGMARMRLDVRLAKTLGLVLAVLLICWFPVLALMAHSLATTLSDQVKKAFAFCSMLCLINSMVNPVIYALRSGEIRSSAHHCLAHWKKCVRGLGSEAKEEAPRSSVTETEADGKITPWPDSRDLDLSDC

[3] = molecular target: T1, Cannabinoid receptor 2; experiment: Agonist activity at human CB2 receptor expressed in CHO cells by [35S]GTP-gamma-S binding assay; format: functional, cell-based
[4] = molecular target: T1, Cannabinoid receptor 2; experiment: Displacement of [3H]CP-55940 from human CB2 receptor expressed in CHO cells; format: cell-based
[5] = species on record: Homo sapiens; experiment: Selectivity for human CB2 receptor over human CB1 receptor

Sequence of Cannabinoid receptor 1 (P21554 whole entry): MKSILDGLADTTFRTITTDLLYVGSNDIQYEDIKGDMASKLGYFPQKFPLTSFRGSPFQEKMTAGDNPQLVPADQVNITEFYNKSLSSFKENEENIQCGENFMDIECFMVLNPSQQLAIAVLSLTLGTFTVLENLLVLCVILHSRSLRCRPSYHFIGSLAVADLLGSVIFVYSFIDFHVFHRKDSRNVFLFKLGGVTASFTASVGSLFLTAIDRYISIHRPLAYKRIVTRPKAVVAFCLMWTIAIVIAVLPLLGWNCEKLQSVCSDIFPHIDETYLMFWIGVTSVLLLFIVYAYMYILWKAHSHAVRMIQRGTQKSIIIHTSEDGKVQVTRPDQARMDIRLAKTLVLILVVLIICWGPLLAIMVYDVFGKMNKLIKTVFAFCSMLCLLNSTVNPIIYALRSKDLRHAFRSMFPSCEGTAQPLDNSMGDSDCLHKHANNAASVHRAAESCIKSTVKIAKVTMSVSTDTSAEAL

Row | Structure (SMILES) | IC50 [1] [nM] | Emax [2] [%] | EC50 [3] [nM] | IC50 [4] [nM] | Ratio IC50 [5]
1 | Cc1c(C(C)(C)C)s/c(=N\S(=O)(=O)c2ccccc2)n1C | > 50000 | 110 | 110 | 340 | –
2 | CC(C)=CCn1c(C)c(C(C)(C)C)s/c1=N\S(=O)(=O)c1ccccc1 | – | – | – | 170 | –
3 | C=CCn1c(C)c(C(C)(C)C)s/c1=N\S(=O)(=O)c1ccccc1 | – | – | – | 75 | –
4 | Cc1c(C(C)(C)C)s/c(=N\S(=O)(=O)c2cccc3ccccc23)n1CC1CC1 | 1700 | 100 | 7.2 | 16 | 106
5 | C#CCn1c(C)c(C(C)(C)C)s/c1=N\S(=O)(=O)c1ccccc1 | – | – | – | 210 | –
6 | Cc1c(C(C)(C)C)s/c(=N\S(=O)(=O)c2ccc3ccccc3c2)n1CC1CC1 | – | – | – | 490 | –
7 | Cc1c(C(C)(C)C)s/c(=N\S(=O)(=O)c2ccccc2)n1CC1CC1 | – | – | – | 65 | –
